Results: the supplement of paper PMC10883282

How the values were obtained:
Test in all cases: relative viability vs DMSO control (72 h) (fraction); higher = more viable cells
SK-ES-1 = tested on: SK-ES-1
Procedure, shortened: (§1)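 Relative viability was measured with ATPLite and expressed as percent growth, averaged across up to triplicate wells. Sarcoma cell lines had been seeded in 384-well plates to reach 80–90% confluence, dosed after 24 h, and incubated 72 h at 37 °C, 5% CO2. All data were rescaled on a scale where 1 is full and 0 is none.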

SW684 = tested on: SW684
Procedure, shortened: as §1

HS729 = tested on: HS729
Procedure, shortened: as §1

VA-ES-BJ = tested on: VA-ES-BJ
Procedure, shortened: as §1

KHOS-NP = tested on: KHOS-NP
Procedure, shortened: as §1

A204 = tested on: A204
Procedure, shortened: as §1

SW872 = tested on: SW872
Procedure, shortened: as §1

SK-LMS-1 = tested on: SK-LMS-1
Procedure, shortened: as §1

SYO-1 = tested on: SYO-1
Procedure, shortened: as §1

MES-SA = tested on: MES-SA
Procedure, shortened: as §1

RD = tested on: RD
Procedure, shortened: as §1

G401 = tested on: G401
Procedure, shortened: as §1

CC(C)NC[C@@H](C(=O)N1CCN(c2ncnc3c2[C@H](C)C[C@H]3O)CC1)c1ccc(Cl)cc1 [Ipatasertib]
Conditions | relative viability
A204, 0.00017 µM | 1.06
A204, 0.00051 µM | 1.08
A204, 0.00152 µM | 1.05
A204, 0.00457 µM | 1.05
A204, 0.01372 µM | 1.05
A204, 0.04115 µM | 0.992
A204, 0.1235 µM | 0.953
A204, 0.3704 µM | 0.751
A204, 1.111 µM | 0.711
A204, 3.333 µM | 0.621
A204, 10 µM | 0.509
G401, 0.00017 µM | 1.03
G401, 0.00051 µM | 1.04
G401, 0.00152 µM | 1.01
G401, 0.00457 µM | 0.956
G401, 0.01372 µM | 0.942
G401, 0.04115 µM | 0.89
G401, 0.1235 µM | 0.863
G401, 0.3704 µM | 0.786
G401, 1.111 µM | 0.707
G401, 3.333 µM | 0.655
G401, 10 µM | 0.613
HS729, 0.00017 µM | 1
HS729, 0.00051 µM | 0.969
HS729, 0.00152 µM | 0.91
HS729, 0.00457 µM | 0.916
HS729, 0.01372 µM | 0.844
HS729, 0.04115 µM | 0.849
HS729, 0.1235 µM | 0.802
HS729, 0.3704 µM | 0.726
HS729, 1.111 µM | 0.643
HS729, 3.333 µM | 0.532
HS729, 10 µM | 0.49
KHOS-NP, 0.00017 µM | 1.1
KHOS-NP, 0.00051 µM | 1.11
KHOS-NP, 0.00152 µM | 1.11
KHOS-NP, 0.00457 µM | 1.09
KHOS-NP, 0.01372 µM | 1.06
KHOS-NP, 0.04115 µM | 1.06
KHOS-NP, 0.1235 µM | 1.067
KHOS-NP, 0.3704 µM | 1.04
KHOS-NP, 1.111 µM | 1.04
KHOS-NP, 3.333 µM | 0.994
KHOS-NP, 10 µM | 0.957
MES-SA, 0.00017 µM | 0.935
MES-SA, 0.00051 µM | 0.904
MES-SA, 0.00152 µM | 0.9385
MES-SA, 0.00457 µM | 0.905
MES-SA, 0.01372 µM | 0.8986
MES-SA, 0.04115 µM | 0.847
MES-SA, 0.1235 µM | 0.751
MES-SA, 0.3704 µM | 0.619
MES-SA, 1.111 µM | 0.467
MES-SA, 3.333 µM | 0.317
MES-SA, 10 µM | 0.24
RD, 0.00017 µM | 1.03
RD, 0.00051 µM | 1.06
RD, 0.00152 µM | 1.06
RD, 0.00457 µM | 1.05
RD, 0.01372 µM | 1.07
RD, 0.04115 µM | 1.05
RD, 0.1235 µM | 0.991
RD, 0.3704 µM | 0.916
RD, 1.111 µM | 0.799
RD, 3.333 µM | 0.681
RD, 10 µM | 0.623
SK-ES-1, 0.00017 µM | 1.03
SK-ES-1, 0.00051 µM | 1.04
SK-ES-1, 0.00152 µM | 1.01
SK-ES-1, 0.00457 µM | 1
SK-ES-1, 0.01372 µM | 1.02
SK-ES-1, 0.04115 µM | 0.947
SK-ES-1, 0.1235 µM | 0.944
SK-ES-1, 0.3704 µM | 0.79
SK-ES-1, 1.111 µM | 0.683
SK-ES-1, 3.333 µM | 0.529
SK-ES-1, 10 µM | 0.473
SK-LMS-1, 0.00017 µM | 0.971
SK-LMS-1, 0.00051 µM | 0.95
SK-LMS-1, 0.00152 µM | 0.96
SK-LMS-1, 0.00457 µM | 1
SK-LMS-1, 0.01372 µM | 0.954
SK-LMS-1, 0.04115 µM | 0.959
SK-LMS-1, 0.1235 µM | 0.909
SK-LMS-1, 0.3704 µM | 0.8304
SK-LMS-1, 1.111 µM | 0.651
SK-LMS-1, 3.333 µM | 0.594
SK-LMS-1, 10 µM | 0.55
SW684, 0.00017 µM | 1.07
SW684, 0.00051 µM | 1.11
SW684, 0.00152 µM | 1.11
SW684, 0.00457 µM | 1.09
SW684, 0.01372 µM | 1.09
SW684, 0.04115 µM | 1.08
SW684, 0.1235 µM | 0.994
SW684, 0.3704 µM | 0.855
SW684, 1.111 µM | 0.664
SW684, 3.333 µM | 0.5598
SW684, 10 µM | 0.49
SW872, 0.00017 µM | 1.01
SW872, 0.00051 µM | 1.04
SW872, 0.00152 µM | 1.01
SW872, 0.00457 µM | 1.01
SW872, 0.01372 µM | 0.922
SW872, 0.04115 µM | 0.91
SW872, 0.1235 µM | 0.843
SW872, 0.3704 µM | 0.712
SW872, 1.111 µM | 0.611
SW872, 3.333 µM | 0.491
SW872, 10 µM | 0.415
SYO-1, 0.00017 µM | 0.95
SYO-1, 0.00051 µM | 0.94
SYO-1, 0.00152 µM | 0.862
SYO-1, 0.00457 µM | 0.821
SYO-1, 0.01372 µM | 0.807
SYO-1, 0.04115 µM | 0.776
SYO-1, 0.1235 µM | 0.719
SYO-1, 0.3704 µM | 0.656
SYO-1, 1.111 µM | 0.636
SYO-1, 3.333 µM | 0.549
SYO-1, 10 µM | 0.504
VA-ES-BJ, 0.00017 µM | 1.07
VA-ES-BJ, 0.00051 µM | 1.04
VA-ES-BJ, 0.00152 µM | 1.03
VA-ES-BJ, 0.00457 µM | 1.022
VA-ES-BJ, 0.01372 µM | 0.955
VA-ES-BJ, 0.04115 µM | 0.8984
VA-ES-BJ, 0.1235 µM | 0.819
VA-ES-BJ, 0.3704 µM | 0.666
VA-ES-BJ, 1.111 µM | 0.492
VA-ES-BJ, 3.333 µM | 0.418
VA-ES-BJ, 10 µM | 0.368
